Reference: ChEMBL document CHEMBL1201862, “PubChem BioAssay data set” (2004)
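Assay format: 96-well plates, 48-hour exposure. The concentration for 50% growth inhibition is given as GI50.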 Active and inactive are the calls of the source. No stated cut-off is given here; in the data, active = GI50 up to about 1.1 µM and inactive = higher.

Tests used:
Assay in all cases: DTP human tumour cell line panel, 48 h
[1] = system: 786-0
[2] = system: A549
[3] = system: ACHN
[4] = system: CCRF-CEM
[5] = system: COLO 205
[6] = system: DLD-1
[7] = system: DMS-114
[8] = system: DMS-273
[9] = system: EKVX
[10] = system: HCC 2998
[11] = system: HCT-116
[12] = system: HCT-15
[13] = system: HL-60
[14] = system: HOP-18
[15] = system: HOP-92
[16] = system: HT-29
[17] = system: IGROV-1
[18] = system: K562
[19] = system: KM12
[20] = system: LXFL 529
[21] = system: M14
[22] = system: M19-MEL
[23] = system: MOLT-4
[24] = system: Malme-3M
[25] = system: NCI-H226
[26] = system: NCI-H23
[27] = system: NCI-H460
[28] = system: NCI-H522
[29] = system: OVCAR-3
[30] = system: OVCAR-4
[31] = system: OVCAR-5
[32] = system: OVCAR-8
[33] = system: RPMI-8226
[34] = system: SF-268
[35] = system: SF-295
[36] = system: SF-539
[37] = system: SK-MEL-28
[38] = system: SK-MEL-2
[39] = system: SK-MEL-5
[40] = system: SK-OV-3
[41] = system: SN12C
[42] = system: SNB-19
[43] = system: SNB-75
[44] = system: SNB-78
[45] = system: TK-10
[46] = system: U-251
[47] = system: UACC-257
[48] = system: UO-31
[49] = system: A498
[50] = system: CAKI-1
[51] = system: HOP-62
[52] = system: KM-20L2
[53] = system: LOX IMVI
[54] = system: MCF7
[55] = system: NCI/ADR-RES
[56] = system: RXF 393
[57] = system: SW-620
[58] = system: UACC-62
[59] = system: XF498
[60] = system: SR

N#Cc1c2nc3ccccc3nc2n2ccc3ccccc3c12 was tested, and the GI50 [1] was > 100 µM (inactive), the GI50 [2] was > 100 µM (inactive) and the GI50 [3] was > 100 µM (inactive). For the same compound, the GI50 [4] was > 100 µM (inactive), the GI50 [5] was > 100 µM (inactive) and the GI50 [6] was > 100 µM (inactive). For the same compound, the GI50 [7] was > 100 µM (inactive), the GI50 [8] was > 100 µM (inactive) and the GI50 [9] was > 100 µM (inactive). The GI50 [10] was > 100 µM (inactive), the GI50 [11] was 54 µM (inactive) and the GI50 [12] was over 100 µM. The GI50 [13] was > 100 µM (inactive), the GI50 [14] was > 100 µM (inactive) and the GI50 [15] was > 100 µM (inactive). The GI50 [16] was > 100 µM (inactive), the GI50 [17] was > 100 µM (inactive) and the GI50 [18] was > 100 µM (inactive). For the same compound, the GI50 [19] was 32.4 µM (inactive), the GI50 [20] was > 100 µM (inactive) and the GI50 [21] was > 100 µM (inactive). The GI50 [22] was > 100 µM (inactive), the GI50 [23] was > 100 µM (inactive) and the GI50 [24] was > 100 µM (inactive). For the same compound, the GI50 [25] was > 100 µM (inactive), the GI50 [26] was 68.4 µM (inactive) and the GI50 [27] was > 100 µM (inactive). The GI50 [28] was > 100 µM (inactive), the GI50 [29] was > 100 µM (inactive) and the GI50 [30] was > 100 µM (inactive). The GI50 [31] was > 100 µM (inactive), the GI50 [32] was > 100 µM (inactive) and the GI50 [33] was > 100 µM (inactive). For the same compound, the GI50 [34] was > 100 µM (inactive), the GI50 [35] was > 100 µM (inactive) and the GI50 [36] was > 100 µM (inactive). For the same compound, the GI50 [37] was > 100 µM (inactive), the GI50 [38] was > 100 µM (inactive) and the GI50 [39] was > 100 µM (inactive). For the same compound, the GI50 [40] was > 100 µM (inactive), the GI50 [41] was > 100 µM (inactive) and the GI50 [42] was > 100 µM (inactive). For the same compound, the GI50 [43] was > 100 µM (inactive), the GI50 [44] was > 100 µM (inactive) and the GI50 [45] was > 100 µM (inactive). The GI50 [46] was > 100 µM (inactive), the GI50 [47] was > 100 µM (inactive) and the GI50 [48] was > 100 µM (inactive).
COc1ccc(O)c(C#N)c1C#N.COc1ccc(OC)c(C#N)c1C#N was tested, and the GI50 [49] was > 100 µM (inactive), the GI50 [2] was > 100 µM (inactive) and the GI50 [50] was > 100 µM (inactive). The GI50 [4] was > 100 µM (inactive), the GI50 [5] was > 100 µM (inactive) and the GI50 [6] was > 100 µM (inactive). The GI50 [8] was > 100 µM (inactive), the GI50 [9] was 23.7 µM (inactive) and the GI50 [10] was > 100 µM (inactive). For the same compound, the GI50 [11] was > 100 µM (inactive), the GI50 [12] was over 100 µM and the GI50 [13] was > 100 µM (inactive). The GI50 [51] was > 100 µM (inactive), the GI50 [15] was > 100 µM (inactive) and the GI50 [16] was > 100 µM (inactive). The GI50 [17] was > 100 µM (inactive), the GI50 [18] was > 100 µM (inactive) and the GI50 [52] was > 100 µM (inactive). For the same compound, the GI50 [19] was > 100 µM (inactive), the GI50 [53] was > 100 µM (inactive) and the GI50 [22] was > 100 µM (inactive). For the same compound, the GI50 [54] was > 100 µM (inactive), the GI50 [23] was > 100 µM (inactive) and the GI50 [24] was > 100 µM (inactive). The GI50 [25] was > 100 µM (inactive), the GI50 [26] was > 100 µM (inactive) and the GI50 [27] was > 100 µM (inactive). The GI50 [55] was > 100 µM (inactive), the GI50 [29] was > 100 µM (inactive) and the GI50 [30] was > 100 µM (inactive). The GI50 [31] was > 100 µM (inactive), the GI50 [32] was > 100 µM (inactive) and the GI50 [33] was > 100 µM (inactive). The GI50 [56] was > 100 µM (inactive), the GI50 [34] was > 100 µM (inactive) and the GI50 [35] was > 100 µM (inactive). For the same compound, the GI50 [36] was > 100 µM (inactive), the GI50 [37] was > 100 µM (inactive) and the GI50 [38] was > 100 µM (inactive). The GI50 [39] was > 100 µM (inactive), the GI50 [40] was > 100 µM (inactive) and the GI50 [41] was > 100 µM (inactive). The GI50 [42] was > 100 µM (inactive), the GI50 [43] was 45.8 µM (inactive) and the GI50 [44] was > 100 µM (inactive). The GI50 [57] was > 100 µM (inactive), the GI50 [46] was > 100 µM (inactive) and the GI50 [47] was > 100 µM (inactive). For the same compound, the GI50 [58] was > 100 µM (inactive), the GI50 [48] was > 100 µM (inactive) and the GI50 [59] was > 100 µM (inactive).
[N-]=[N+]=Nc1cc(=O)n(-c2ccccc2)c2ccccc12 was tested, and the GI50 [1] was > 100 µM (inactive), the GI50 [2] was > 100 µM (inactive) and the GI50 [3] was > 100 µM (inactive). For the same compound, the GI50 [50] was > 100 µM (inactive), the GI50 [4] was > 100 µM (inactive) and the GI50 [5] was > 100 µM (inactive). For the same compound, the GI50 [6] was > 100 µM (inactive), the GI50 [7] was > 100 µM (inactive) and the GI50 [8] was > 100 µM (inactive). The GI50 [11] was > 100 µM (inactive), the GI50 [12] was over 100 µM and the GI50 [13] was > 100 µM (inactive). For the same compound, the GI50 [14] was > 100 µM (inactive), the GI50 [51] was > 100 µM (inactive) and the GI50 [16] was > 100 µM (inactive). The GI50 [17] was > 100 µM (inactive), the GI50 [18] was > 100 µM (inactive) and the GI50 [19] was > 100 µM (inactive). The GI50 [53] was > 100 µM (inactive), the GI50 [20] was > 100 µM (inactive) and the GI50 [21] was > 100 µM (inactive). For the same compound, the GI50 [22] was > 100 µM (inactive), the GI50 [23] was > 100 µM (inactive) and the GI50 [24] was > 100 µM (inactive). The GI50 [25] was > 100 µM (inactive), the GI50 [26] was > 100 µM (inactive) and the GI50 [27] was > 100 µM (inactive). For the same compound, the GI50 [28] was > 100 µM (inactive), the GI50 [30] was > 100 µM (inactive) and the GI50 [31] was > 100 µM (inactive). For the same compound, the GI50 [32] was > 100 µM (inactive), the GI50 [33] was > 100 µM (inactive) and the GI50 [56] was 63.1 µM (inactive). The GI50 [34] was > 100 µM (inactive), the GI50 [35] was > 100 µM (inactive) and the GI50 [36] was > 100 µM (inactive). The GI50 [37] was > 100 µM (inactive), the GI50 [38] was > 100 µM (inactive) and the GI50 [39] was > 100 µM (inactive). The GI50 [40] was > 100 µM (inactive), the GI50 [41] was > 100 µM (inactive) and the GI50 [43] was 70.8 µM (inactive). For the same compound, the GI50 [60] was > 100 µM (inactive), the GI50 [57] was > 100 µM (inactive) and the GI50 [45] was > 100 µM (inactive). For the same compound, the GI50 [46] was > 100 µM (inactive), the GI50 [47] was > 100 µM (inactive) and the GI50 [58] was > 100 µM (inactive). For the same compound, the GI50 [48] was > 100 µM (inactive).
CCOC(=O)C(=O)C(C#N)c1ccc(Cl)cc1 (stereo unspecified) was tested, and the GI50 [1] was > 100 µM (inactive), the GI50 [49] was > 100 µM (inactive) and the GI50 [2] was > 100 µM (inactive). For the same compound, the GI50 [3] was > 100 µM (inactive), the GI50 [50] was > 100 µM (inactive) and the GI50 [5] was > 100 µM (inactive). The GI50 [6] was > 100 µM (inactive), the GI50 [7] was > 100 µM (inactive) and the GI50 [8] was > 100 µM (inactive). For the same compound, the GI50 [9] was > 100 µM (inactive), the GI50 [11] was > 100 µM (inactive) and the GI50 [12] was over 100 µM. The GI50 [13] was > 100 µM (inactive), the GI50 [51] was > 100 µM (inactive) and the GI50 [15] was > 100 µM (inactive). For the same compound, the GI50 [16] was > 100 µM (inactive), the GI50 [17] was > 100 µM (inactive) and the GI50 [18] was > 100 µM (inactive). The GI50 [52] was > 100 µM (inactive), the GI50 [53] was > 100 µM (inactive) and the GI50 [20] was > 100 µM (inactive). The GI50 [21] was > 100 µM (inactive), the GI50 [22] was > 100 µM (inactive) and the GI50 [23] was > 100 µM (inactive). For the same compound, the GI50 [24] was > 100 µM (inactive), the GI50 [25] was 62.4 µM (inactive) and the GI50 [26] was > 100 µM (inactive). The GI50 [27] was > 100 µM (inactive), the GI50 [28] was > 100 µM (inactive) and the GI50 [29] was > 100 µM (inactive). For the same compound, the GI50 [30] was > 100 µM (inactive), the GI50 [31] was > 100 µM (inactive) and the GI50 [32] was > 100 µM (inactive). For the same compound, the GI50 [33] was > 100 µM (inactive), the GI50 [56] was > 100 µM (inactive) and the GI50 [34] was > 100 µM (inactive). The GI50 [35] was > 100 µM (inactive), the GI50 [36] was > 100 µM (inactive) and the GI50 [37] was > 100 µM (inactive). For the same compound, the GI50 [38] was > 100 µM (inactive), the GI50 [39] was > 100 µM (inactive) and the GI50 [40] was > 100 µM (inactive). For the same compound, the GI50 [41] was > 100 µM (inactive), the GI50 [42] was > 100 µM (inactive) and the GI50 [43] was > 100 µM (inactive). For the same compound, the GI50 [44] was > 100 µM (inactive), the GI50 [57] was > 100 µM (inactive) and the GI50 [45] was > 100 µM (inactive). The GI50 [46] was > 100 µM (inactive), the GI50 [47] was > 100 µM (inactive) and the GI50 [58] was > 100 µM (inactive). For the same compound, the GI50 [48] was 88.1 µM (inactive) and the GI50 [59] was > 100 µM (inactive).
